Source: US8916702B2 (priority 2012, dated 2014)

System: HCV pseudoparticles (genotype 1a HCV E1 and E2 envelope, H77C isolate)
Test: microbe, parasite or virus in culture
Format: cell-based
Settings: Hepatitis C virus, Huh-7, 48 h, HCV pseudoparticles (genotype 1a, H77C) in Huh7 cells; average of duplicate; luciferase 2 days after infection

Structure (SMILES) | EC50
CC(C)(CNC(=O)c1ccc(Nc2nc(NC3(c4ccc(Cl)cc4)CC3)nc(OCC(F)(F)F)n2)cc1)NC(=O)C(=O)Nc1ccccc1 [Compound 3425] | 0.033 nM
CN(CCCN(C)C(=O)c1ccc(Nc2nc(NC3(c4ccc(Cl)cc4)CC3)nc(OCC(F)(F)F)n2)cc1)C(=O)C(=O)Nc1nccs1 [Compound 3430] | 1.45 nM
CC(C)(CNC(=O)c1ccc(Nc2nc(NC3(c4ccc(Cl)cc4)CC3)nc(OCC(F)(F)F)n2)cc1)NC(=O)C(=O)NC1CCCCC1 [Compound 3436] | 0.081 nM
Cc1ccc(NC(=O)C(=O)N(C)CCCNC(=O)c2ccc(Nc3nc(NC4(c5ccc(Cl)cc5)CC4)nc(OCC(F)(F)F)n3)cc2)cc1 [Compound 3445] | 0.061 nM
CN(CCCNC(=O)c1ccc(Nc2nc(NC3(c4ccc(Cl)cc4)CC3)nc(OCC(F)(F)F)n2)cc1)C(=O)C(=O)Nc1ccc(F)cc1 [Compound 3448] | 0.059 nM
O=C(NCC(O)CNC(=O)c1ccc(Nc2nc(NC3(c4ccc(Cl)cc4)CC3)nc(OCC(F)(F)F)n2)cc1)C(=O)Nc1ccccc1 (stereo not drawn) [Compound 3460] | 0.016 nM
O=C(NCC(O)CNC(=O)c1ccc(Nc2nc(NC3(c4ccc(Cl)cc4)CC3)nc(OCC(F)(F)F)n2)cc1)C(=O)Nc1cc(F)cc(F)c1 (stereo not drawn) [Compound 3461] | 0.027 nM
CC(CNC(=O)C(=O)Nc1cc(F)cc(F)c1)CNC(=O)c1ccc(Nc2nc(NC3(c4ccc(Cl)cc4)CC3)nc(OCC(F)(F)F)n2)cc1 (stereo not drawn) [Compound 3469] | 0.035 nM
CC(C)(CNC(=O)C(N)=O)CNC(=O)c1ccc(Nc2nc(NC3(c4ccc(Cl)cc4)CC3)nc(OCC(F)(F)F)n2)cc1Cl [Compound 3477] | 0.12 nM

Same assay, conditions: Hepatitis C virus, Huh-7, read-out: Activity (EC50 class), HCV pseudoparticles (genotype 1a, H77C) in Huh7 cells; EC50 expressed as class A/B

Structure (SMILES) | EC50
CC(C)(CNC(=O)c1ccc(Nc2nc(NC3(c4ccc(Cl)cc4)CC3)nc(OCC(F)(F)F)n2)cc1)NC(=O)C(=O)Nc1ccccc1 [Compound 3425] | 0.01 to 10 nM
CN(CCCN(C)C(=O)c1ccc(Nc2nc(NC3(c4ccc(Cl)cc4)CC3)nc(OCC(F)(F)F)n2)cc1)C(=O)C(=O)Nc1ccc(F)cc1F [Compound 3426] | 0.01 to 10 nM
CN(CCCN(C)C(=O)c1ccc(Nc2nc(NC3(c4ccc(Cl)cc4)CC3)nc(OCC(F)(F)F)n2)cc1)C(=O)C(=O)Nc1cc(F)cc(F)c1 [Compound 3427] | 0.01 to 10 nM
CN(CCCN(C)C(=O)c1ccc(Nc2nc(NC3(c4ccc(Cl)cc4)CC3)nc(OCC(F)(F)F)n2)cc1)C(=O)C(=O)Nc1ccccc1 [Compound 3428] | 0.01 to 10 nM
CN(CCCN(C)C(=O)c1ccc(Nc2nc(NC3(c4ccc(Cl)cc4)CC3)nc(OCC(F)(F)F)n2)cc1)C(=O)C(=O)NC1CCCCC1 [Compound 3429] | 0.01 to 10 nM
CN(CCCN(C)C(=O)c1ccc(Nc2nc(NC3(c4ccc(Cl)cc4)CC3)nc(OCC(F)(F)F)n2)cc1)C(=O)C(=O)Nc1nccs1 [Compound 3430] | 0.01 to 10 nM
CC(C)CNC(=O)C(=O)N(C)CCCN(C)C(=O)c1ccc(Nc2nc(NC3(c4ccc(Cl)cc4)CC3)nc(OCC(F)(F)F)n2)cc1 [Compound 3431] | 0.01 to 10 nM
CN(CCCN(C)C(=O)c1ccc(Nc2nc(NC3(c4ccc(Cl)cc4)CC3)nc(OCC(F)(F)F)n2)cc1)C(=O)C(=O)N1CCCCC1 [Compound 3432] | 10 to 1000 nM
CN(CCCN(C)C(=O)c1ccc(Nc2nc(NC3(c4ccc(Cl)cc4)CC3)nc(OCC(F)(F)F)n2)cc1)C(=O)C(=O)N1CCc2ccccc2C1 [Compound 3433] | 10 to 1000 nM
Cc1ccc(NC(=O)C(=O)N(C)CCCN(C)C(=O)c2ccc(Nc3nc(NC4(c5ccc(Cl)cc5)CC4)nc(OCC(F)(F)F)n3)cc2)cc1Cl [Compound 3434] | 0.01 to 10 nM
CC(C)(CNC(=O)C(=O)Nc1ccc(C(F)(F)F)cc1C#N)CNC(=O)c1ccc(Nc2nc(NC3(c4ccc(Cl)cc4)CC3)nc(OCC(F)(F)F)n2)cc1 [Compound 3435] | 0.01 to 10 nM
CC(C)(CNC(=O)c1ccc(Nc2nc(NC3(c4ccc(Cl)cc4)CC3)nc(OCC(F)(F)F)n2)cc1)NC(=O)C(=O)NC1CCCCC1 [Compound 3436] | 0.01 to 10 nM
CC(C)(CNC(=O)c1ccc(Nc2nc(NC3(c4ccc(Cl)cc4)CC3)nc(OCC(F)(F)F)n2)cc1)NC(=O)C(=O)Nc1nccs1 [Compound 3437] | 0.01 to 10 nM
CC(C)(CNC(=O)c1ccc(Nc2nc(NC3(c4ccc(Cl)cc4)CC3)nc(OCC(F)(F)F)n2)cc1)NC(=O)C(=O)Nc1ccc(F)cc1F [Compound 3438] | 0.01 to 10 nM
CC(C)(CNC(=O)c1ccc(Nc2nc(NC3(c4ccc(Cl)cc4)CC3)nc(OCC(F)(F)F)n2)cc1)NC(=O)C(=O)N1CCCCC1 [Compound 3439] | 0.01 to 10 nM
CC(C)(CNC(=O)c1ccc(Nc2nc(NC3(c4ccc(Cl)cc4)CC3)nc(OCC(F)(F)F)n2)cc1)NC(=O)C(=O)N1CCc2ccccc2C1 [Compound 3440] | 0.01 to 10 nM
Cc1ccc(NC(=O)C(=O)NC(C)(C)CNC(=O)c2ccc(Nc3nc(NC4(c5ccc(Cl)cc5)CC4)nc(OCC(F)(F)F)n3)cc2)cc1Cl [Compound 3441] | 0.01 to 10 nM
CC(C)CNC(=O)C(=O)NC(C)(C)CNC(=O)c1ccc(Nc2nc(NC3(c4ccc(Cl)cc4)CC3)nc(OCC(F)(F)F)n2)cc1 [Compound 3442] | 0.01 to 10 nM
CN(CCCNC(=O)c1ccc(Nc2nc(NC3(c4ccc(Cl)cc4)CC3)nc(OCC(F)(F)F)n2)cc1)C(=O)C(=O)Nc1cccc(F)c1 [Compound 3443] | 0.01 to 10 nM
CN(CCCNC(=O)c1ccc(Nc2nc(NC3(c4ccc(Cl)cc4)CC3)nc(OCC(F)(F)F)n2)cc1)C(=O)C(=O)NCc1ccc(F)cc1 [Compound 3444] | 0.01 to 10 nM
Cc1ccc(NC(=O)C(=O)N(C)CCCNC(=O)c2ccc(Nc3nc(NC4(c5ccc(Cl)cc5)CC4)nc(OCC(F)(F)F)n3)cc2)cc1 [Compound 3445] | 0.01 to 10 nM
Cc1cc(NC(=O)C(=O)N(C)CCCNC(=O)c2ccc(Nc3nc(NC4(c5ccc(Cl)cc5)CC4)nc(OCC(F)(F)F)n3)cc2)no1 [Compound 3446] | 0.01 to 10 nM
CN(CCCNC(=O)c1ccc(Nc2nc(NC3(c4ccc(Cl)cc4)CC3)nc(OCC(F)(F)F)n2)cc1)C(=O)C(N)=O [Compound 3447] | 0.01 to 10 nM
CN(CCCNC(=O)c1ccc(Nc2nc(NC3(c4ccc(Cl)cc4)CC3)nc(OCC(F)(F)F)n2)cc1)C(=O)C(=O)Nc1ccc(F)cc1 [Compound 3448] | 0.01 to 10 nM
CN(CCCNC(=O)c1ccc(Nc2nc(NC3(c4ccc(Cl)cc4)CC3)nc(OCC(F)(F)F)n2)cc1)C(=O)C(=O)Nc1ccc(F)cc1F [Compound 3449] | 0.01 to 10 nM
CN(CCCNC(=O)c1ccc(Nc2nc(NC3(c4ccc(Cl)cc4)CC3)nc(OCC(F)(F)F)n2)cc1)C(=O)C(=O)Nc1ccccc1 [Compound 3450] | 0.01 to 10 nM
CN(CCCNC(=O)c1ccc(Nc2nc(NC3(c4ccc(Cl)cc4)CC3)nc(OCC(F)(F)F)n2)cc1)C(=O)C(=O)Nc1cc(F)cc(F)c1 [Compound 3451] | 0.01 to 10 nM

Structure (SMILES) | EC50
CC(C)(CNC(=O)C(=O)Nc1ccc(Cl)cc1F)CNC(=O)c1ccc(Nc2nc(NC3(c4ccc(Cl)cc4)CC3)nc(OCC(F)(F)F)n2)cc1 [Compound 3452] | 0.01 to 10 nM
CC(C)(CNC(=O)C(=O)Nc1ccc(Cl)cc1Cl)CNC(=O)c1ccc(Nc2nc(NC3(c4ccc(Cl)cc4)CC3)nc(OCC(F)(F)F)n2)cc1 [Compound 3453] | 0.01 to 10 nM
Cc1ccc(NC(=O)C(=O)NCC(C)(C)CNC(=O)c2ccc(Nc3nc(NC4(c5ccc(Cl)cc5)CC4)nc(OCC(F)(F)F)n3)cc2)c(C#N)c1 [Compound 3454] | 0.01 to 10 nM
Cc1ccc(NC(=O)C(=O)NCC(C)(C)CNC(=O)c2ccc(Nc3nc(NC4(c5ccc(Cl)cc5)CC4)nc(OCC(F)(F)F)n3)cc2)c(C(F)(F)F)c1 [Compound 3455] | 0.01 to 10 nM
COc1ccc(NC(=O)C(=O)NCC(C)(C)CNC(=O)c2ccc(Nc3nc(NC4(c5ccc(Cl)cc5)CC4)nc(OCC(F)(F)F)n3)cc2)c(C(F)(F)F)c1 [Compound 3456] | 0.01 to 10 nM
CC(C)(CNC(=O)C(=O)Nc1ccc(F)cc1C(F)(F)F)CNC(=O)c1ccc(Nc2nc(NC3(c4ccc(Cl)cc4)CC3)nc(OCC(F)(F)F)n2)cc1 [Compound 3457] | 0.01 to 10 nM
NC(=O)C(=O)NCC(O)CNC(=O)c1ccc(Nc2nc(NC3(c4ccc(Cl)cc4)CC3)nc(OCC(F)(F)F)n2)cc1 (stereo not drawn) [Compound 3458] | 0.01 to 10 nM
O=C(Cc1ccc(F)cc1F)C(=O)NCC(O)CNC(=O)c1ccc(Nc2nc(NC3(c4ccc(Cl)cc4)CC3)nc(OCC(F)(F)F)n2)cc1 (stereo not drawn) [Compound 3459] | 0.01 to 10 nM
O=C(NCC(O)CNC(=O)c1ccc(Nc2nc(NC3(c4ccc(Cl)cc4)CC3)nc(OCC(F)(F)F)n2)cc1)C(=O)Nc1ccccc1 (stereo not drawn) [Compound 3460] | 0.01 to 10 nM
O=C(NCC(O)CNC(=O)c1ccc(Nc2nc(NC3(c4ccc(Cl)cc4)CC3)nc(OCC(F)(F)F)n2)cc1)C(=O)Nc1cc(F)cc(F)c1 (stereo not drawn) [Compound 3461] | 0.01 to 10 nM
O=C(Cc1nccs1)C(=O)NCC(O)CNC(=O)c1ccc(Nc2nc(NC3(c4ccc(Cl)cc4)CC3)nc(OCC(F)(F)F)n2)cc1 (stereo not drawn) [Compound 3462] | 0.01 to 10 nM
O=C(NCC(O)CNC(=O)c1ccc(Nc2nc(NC3(c4ccc(Cl)cc4)CC3)nc(OCC(F)(F)F)n2)cc1)C(=O)NC1CCCCC1 (stereo not drawn) [Compound 3463] | 0.01 to 10 nM
O=C(NCC(O)CNC(=O)c1ccc(Nc2nc(NC3(c4ccc(Cl)cc4)CC3)nc(OCC(F)(F)F)n2)cc1)C(=O)N1CCc2ccccc2C1 (stereo not drawn) [Compound 3464] | 0.01 to 10 nM
O=C(NCC(O)CNC(=O)c1ccc(Nc2nc(NC3(c4ccc(Cl)cc4)CC3)nc(OCC(F)(F)F)n2)cc1)C(=O)N1CCCCC1 (stereo not drawn) [Compound 3465] | 0.01 to 10 nM
Cc1ccc(NC(=O)C(=O)NCC(O)CNC(=O)c2ccc(Nc3nc(NC4(c5ccc(Cl)cc5)CC4)nc(OCC(F)(F)F)n3)cc2)cc1Cl (stereo not drawn) [Compound 3466] | 0.01 to 10 nM
CC(C)CNC(=O)C(=O)NCC(O)CNC(=O)c1ccc(Nc2nc(NC3(c4ccc(Cl)cc4)CC3)nc(OCC(F)(F)F)n2)cc1 (stereo not drawn) [Compound 3467] | 0.01 to 10 nM
CC(CNC(=O)C(=O)Nc1nccs1)CNC(=O)c1ccc(Nc2nc(NC3(c4ccc(Cl)cc4)CC3)nc(OCC(F)(F)F)n2)cc1 (stereo not drawn) [Compound 3468] | 0.01 to 10 nM
CC(CNC(=O)C(=O)Nc1cc(F)cc(F)c1)CNC(=O)c1ccc(Nc2nc(NC3(c4ccc(Cl)cc4)CC3)nc(OCC(F)(F)F)n2)cc1 (stereo not drawn) [Compound 3469] | 0.01 to 10 nM
CC(CNC(=O)C(=O)Nc1ccccc1)CNC(=O)c1ccc(Nc2nc(NC3(c4ccc(Cl)cc4)CC3)nc(OCC(F)(F)F)n2)cc1 (stereo not drawn) [Compound 3470] | 0.01 to 10 nM
CC(CNC(=O)C(=O)N1CCc2ccccc2C1)CNC(=O)c1ccc(Nc2nc(NC3(c4ccc(Cl)cc4)CC3)nc(OCC(F)(F)F)n2)cc1 (stereo not drawn) [Compound 3471] | 0.01 to 10 nM
CC(CNC(=O)C(=O)NC1CCCCC1)CNC(=O)c1ccc(Nc2nc(NC3(c4ccc(Cl)cc4)CC3)nc(OCC(F)(F)F)n2)cc1 (stereo not drawn) [Compound 3472] | 0.01 to 10 nM
CC(CNC(=O)C(=O)Nc1ccc(F)cc1F)CNC(=O)c1ccc(Nc2nc(NC3(c4ccc(Cl)cc4)CC3)nc(OCC(F)(F)F)n2)cc1 (stereo not drawn) [Compound 3473] | 0.01 to 10 nM
Cc1ccc(NC(=O)C(=O)NCC(C)CNC(=O)c2ccc(Nc3nc(NC4(c5ccc(Cl)cc5)CC4)nc(OCC(F)(F)F)n3)cc2)cc1Cl (stereo not drawn) [Compound 3474] | 0.01 to 10 nM
CC(CNC(=O)C(=O)N1CCCCC1)CNC(=O)c1ccc(Nc2nc(NC3(c4ccc(Cl)cc4)CC3)nc(OCC(F)(F)F)n2)cc1 (stereo not drawn) [Compound 3475] | 0.01 to 10 nM
CC(C)CNC(=O)C(=O)NCC(C)CNC(=O)c1ccc(Nc2nc(NC3(c4ccc(Cl)cc4)CC3)nc(OCC(F)(F)F)n2)cc1 (stereo not drawn) [Compound 3476] | 0.01 to 10 nM
CC(C)(CNC(=O)C(N)=O)CNC(=O)c1ccc(Nc2nc(NC3(c4ccc(Cl)cc4)CC3)nc(OCC(F)(F)F)n2)cc1Cl [Compound 3477] | 0.01 to 10 nM
CC(C)(CNC(=O)C(N)=O)CNC(=O)c1ccc(Nc2nc(NC3(c4ccc(Cl)cc4)CC3)nc(OCC(F)(F)F)n2)c(O)c1 [Compound 3478] | 0.01 to 10 nM
